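Results reflect a 48-hour exposure of cells in 96-well plates to compound at five concentrations. GI50 marks 50% less growth.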 Calls of active or inactive are those of the source. Cut-off read from the data, not from the text of the source: active = GI50 up to about 1.1 µM and inactive = higher.
Assays:
Experiment in all cases: DTP human tumour cell line panel, 48 h
KM12 = system: KM12
786-0 = system: 786-0
SK-MEL-5 = system: SK-MEL-5
U-251 = system: U-251
A549 = system: A549
UO-31 = system: UO-31
LOX IMVI = system: LOX IMVI
OVCAR-5 = system: OVCAR-5
Malme-3M = system: Malme-3M
HCT-15 = system: HCT-15
NCI-H226 = system: NCI-H226
COLO 205 = system: COLO 205
RXF 393 = system: RXF 393
ACHN = system: ACHN
CCRF-CEM = system: CCRF-CEM
SF-295 = system: SF-295
OVCAR-8 = system: OVCAR-8
K562 = system: K562
UACC-62 = system: UACC-62

| Compound | GI50 (KM12) | GI50 (786-0) | GI50 (SK-MEL-5) | GI50 (U-251) | GI50 (A549) | GI50 (UO-31) | GI50 (LOX IMVI) | GI50 (OVCAR-5) | GI50 (Malme-3M) | GI50 (HCT-15) | GI50 (NCI-H226) | GI50 (COLO 205) | GI50 (RXF 393) | GI50 (ACHN) | GI50 (CCRF-CEM) | GI50 (SF-295) | GI50 (OVCAR-8) | GI50 (K562) | GI50 (UACC-62) |
| --- | --- | --- | --- | --- | --- | --- | --- | --- | --- | --- | --- | --- | --- | --- | --- | --- | --- | --- | --- |
| O=c1[nH]c2cc([N+](=O)[O-])ccc2nc1/C(=N\NO)C(O)c1ccc([N+](=O)[O-])cc1 (configuration not stated) | 65 µM (inactive) | > 100 µM (inactive) | > 100 µM (inactive) | > 100 µM (inactive) | > 100 µM (inactive) | > 100 µM (inactive) | 85.1 µM (inactive) | > 100 µM (inactive) | > 100 µM (inactive) | 35.2 µM | > 100 µM (inactive) | > 100 µM (inactive) | > 100 µM (inactive) | 52.5 µM (inactive) | 66.2 µM (inactive) | > 100 µM (inactive) | > 100 µM (inactive) | > 100 µM (inactive) | 59.6 µM (inactive) |
| CC(C)(C)NNc1c([N+](=O)[O-])cnn(-c2ccccc2)c1=O | 10.4 µM (inactive) | 6.24 µM (inactive) | 4.51 µM (inactive) | 3.2 µM (inactive) | 15.3 µM (inactive) | 6.12 µM (inactive) | 1.79 µM (inactive) | 8.81 µM (inactive) | 4.05 µM (inactive) | 3.95 µM | 7.96 µM (inactive) | 4.63 µM (inactive) | 8.32 µM (inactive) | 8.71 µM (inactive) | 0.944 µM (active) | 6.28 µM (inactive) | 2.26 µM (inactive) | 0.942 µM (active) | 3.5 µM (inactive) |
| COc1cc(/C=C2\Cc3ccccc3C2=O)cc(OC)c1OC | > 100 µM (inactive) | > 100 µM (inactive) | > 100 µM (inactive) | > 100 µM (inactive) | > 100 µM (inactive) | > 100 µM (inactive) | > 100 µM (inactive) | > 100 µM (inactive) | > 100 µM (inactive) | > 100 µM | > 100 µM (inactive) | > 100 µM (inactive) | > 100 µM (inactive) | > 100 µM (inactive) | > 100 µM (inactive) | > 100 µM (inactive) | > 100 µM (inactive) | > 100 µM (inactive) | > 100 µM (inactive) |
| O=C(CC(=O)c1cccc([N+](=O)[O-])c1)C(=O)Nc1nc([N+](=O)[O-])cs1 | > 100 µM (inactive) | > 100 µM (inactive) | > 100 µM (inactive) | > 100 µM (inactive) | > 100 µM (inactive) | > 100 µM (inactive) | > 100 µM (inactive) | > 100 µM (inactive) | > 100 µM (inactive) | 79.6 µM | > 100 µM (inactive) | > 100 µM (inactive) | > 100 µM (inactive) |  | 47.8 µM (inactive) | > 100 µM (inactive) | > 100 µM (inactive) | 94.8 µM (inactive) | > 100 µM (inactive) |
| O=S(=O)(O)c1cc(S(=O)(=O)O)c2cc(/N=N/c3ccc(/N=N/c4ccc(/C=C/c5ccc(/N=[N+](/[O-])c6ccc(/C=C/c7ccc(/N=N/c8ccc(/N=N/c9ccc%10cc(S(=O)(=O)O)cc(S(=O)(=O)O)c%10c9)cc8)cc7S(=O)(=O)O)c(S(=O)(=O)O)c6)cc5S(=O)(=O)O)c(S(=O)(=O)O)c4)cc3)ccc2c1 | 26.7 µM (inactive) |  | > 66.7 µM (inactive) | > 55.8 µM (inactive) | > 65.3 µM (inactive) | 70.8 µM (inactive) | > 59.7 µM (inactive) | > 79.3 µM (inactive) | > 62.8 µM (inactive) | 52.6 µM | > 50.5 µM (inactive) | 50.7 µM (inactive) | > 50.9 µM (inactive) |  | > 100 µM (inactive) | > 33 µM (inactive) | > 78.7 µM (inactive) | > 100 µM (inactive) | 7.93 µM (inactive) |
